Test results: article PMC5969746 (PLoS ONE, 2018)
Changes are numbered by the printed parent chain. Numbers in names are those of the source.

Assays:
[1] = target: T1, scyllo-inositol dehydrogenase with L-glucose dehydrogenase activity (Pl-scyllo-IDH) (Paracoccus laeviglucosivorans, UniProt K7ZP76); experiment: X-ray crystal structure, […] Å; format: binding
T1 construct: gene lgdA; lgdA in pET21a(+), expressed in E. coli BL21(DE3), Ni-NTA purified; homo-tetramer, active site includes H318 of the adjacent subunit
T1 sequence (K7ZP76 1-372): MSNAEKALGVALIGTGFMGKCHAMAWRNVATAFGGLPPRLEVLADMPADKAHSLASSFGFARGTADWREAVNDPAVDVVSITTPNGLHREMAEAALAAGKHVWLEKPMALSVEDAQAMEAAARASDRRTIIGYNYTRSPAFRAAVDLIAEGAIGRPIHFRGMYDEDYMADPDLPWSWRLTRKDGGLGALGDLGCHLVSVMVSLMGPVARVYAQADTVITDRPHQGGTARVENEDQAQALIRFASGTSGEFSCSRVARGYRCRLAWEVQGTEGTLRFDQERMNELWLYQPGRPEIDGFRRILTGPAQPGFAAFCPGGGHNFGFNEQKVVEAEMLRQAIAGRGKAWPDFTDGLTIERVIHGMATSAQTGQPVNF

[2] = target: T1, scyllo-inositol dehydrogenase with L-glucose dehydrogenase activity (Pl-scyllo-IDH); experiment: X-ray crystal structure, […] Å; format: binding; remark: listed apart in the source
[3] = target: T1, scyllo-inositol dehydrogenase with L-glucose dehydrogenase activity (Pl-scyllo-IDH); experiment: X-ray crystal structure, […] Å; format: binding; settings: crystal soaked with 100 mM myo-inositol and 25 mM NAD+; active site
purified protein = substrate: O[C@H]1[C@H](O)[C@@H](O)[C@H](O)[C@@H](O)[C@@H]1O; experiment: purified protein; format: biochemical, Paracoccus laeviglucosivorans; settings: 20 mM NAD+, 100 mM Tris-HCl, pH 9.0
[4] = target: the molecule itself; experiment: crystal structure; homo-tetramer in the asymmetric unit, space group P212121; crystals grown at 20°C by hanging-drop vapor diffusion, 0.1 M sodium acetate pH 4.8-5.4, 12-35% PEG 3350; apo form and complexes with NAD+/NADH and sugars

O=C1O[C@@H](CO)[C@H](O)[C@@H](O)[C@@H]1O [L-glucono-1,5-lactone]
X-ray crystal structure, 1.8 Å ([1]; crystal soaked with 100 mM L-glucose and 25 mM NAD+, active site, NADH complex): bound molecule in the active site was in fact the reaction product of L-glucose oxidation

NC(=O)C1=CN([C@@H]2O[C@H](COP(=O)(O)OP(=O)(O)OC[C@H]3O[C@@H](n4cnc5c(N)ncnc54)[C@H](O)[C@@H]3O)[C@@H](O)[C@H]2O)C=CC1 [NADH]
X-ray crystal structure, 1.8 Å ([1]; complex with L-glucono-1,5-lactone, crystal soaked with NAD+, assigned as NADH): the bound cofactor molecule might therefore be NADH

NC(=O)c1ccc[n+]([C@@H]2O[C@H](COP(=O)(O)OP(=O)(O)OC[C@H]3O[C@@H](n4cnc5c(N)ncnc54)[C@H](O)[C@@H]3O)[C@@H](O)[C@H]2O)c1 [NAD^+]
X-ray crystal structure, 2.0 Å ([2]; complex with scyllo-inosose (also with myo-inositol, 5YA8, 2.3 Å), 25 mM NAD+ soak): myo-inositol/NAD^+ and scyllo-inosose/NAD^+ complexes have been deposited

O[C@H]1[C@H](O)[C@@H](O)[C@H](O)[C@@H](O)[C@H]1O [myo-inositol]
X-ray crystal structure, 2.3 Å [3]: complex structures of Pl-scyllo-IDH with scyllo-inosose and myo-inositol were also determined

O=C1[C@@H](O)[C@H](O)[C@@H](O)[C@H](O)[C@H]1O [scyllo-inosose]
X-ray crystal structure, 2.0 Å ([2]; crystal soaked with 100 mM scyllo-inosose and 25 mM NAD+, active site): the carbonyl oxygen located between K106 and H195 formed hydrogen bonds

B1: scyllo-inositol dehydrogenase with L-glucose dehydrogenase activity (Pl-scyllo-IDH) (Paracoccus laeviglucosivorans; R178A) (protein)
chain: T1 sequence (K7ZP76 1-372) with R178A
notes: lgdA in pET21a(+), expressed in E. coli BL21(DE3), Ni-NTA purified; homo-tetramer, active site includes H318 of the adjacent subunit
Km (purified protein): 40.6 ± 7.2 mM | kcat (purified protein): 8.1 ± 0.65 s⁻¹ | kcat/Km (purified protein): 200 M⁻¹ s⁻¹

B2: Paracoccus laeviglucosivorans scyllo-inositol dehydrogenase (enzyme)
chain: T1 sequence (K7ZP76 1-372)
notes: Protein encoded by the lgdA gene of Paracoccus laeviglucosivorans (scyllo-inositol dehydrogenase, GFO/IDH/MocA family); A selenomethionine-substituted form (E. coli B834(DE3)) was used only for phasing; Crystals were also soaked with NAD+ and L-glucose, myo-inositol or scyllo-inosose; also called Pl-scyllo-IDH; LgdA; source: E. coli BL21(DE3), pET21a(+), purified (Ni-NTA agarose, dialysis)
stoichiometry N [4]: 4
